Source: patent US10668040B2, “Treatment of urea cycle disorders in neonates and infants” (Horizon Therapeutics, LLC, priority 2017, dated 2020)

Experiments:
Format in all cases: in vivo, human
[1] = test system: pediatric patients with UCDs; experiment: HPN-100-012 switch-over study: 24-hour blood ammonia on HPN-100 vs NaPBA
Text: HPN-100-012 was an open-label, fixed sequence, switch-over study of the safety, PK and efficacy of HPN-100 compared to NaPBA in patients with UCDs, with a 12-month safety extension part. […] After review of all the safety data by the DSMB, 8 additional subjects were enrolled in the study after the switch-over phase was completed.

[2] = HPN-100-009 (Example 2): plasma PBA, PAA, PAGN PK on first full day of RAVICTI dosing; conditions: Age 2 Months to <2 Years, mean (SD)
Text: Plasma Phenylbutyrate/Phenylbutyric Acid (PB A) 1) Maximum Plasma Concentration (Cmax); 2) Minimum Plasma Concentration (Cmin); 3) Area Under the Curve from Time Zero to the Time of Last Quantifiable Concentration (AUC[0-Last]); and 4) Time to Cmax (Tmax) on the First Full Day of RAVICTI® Dosing.
(§1) End point description. Pharmacokinetic (PK) Evaluable Population: all subjects from the safety population with individual concentration-time profiles that allow computation of meaningful PK parameter values. End point timeframe: Hour 0 and between 4 and 6 hours, 8 hours, and between 12 and 24 hours after the first dose of the day on Day 1 for stable subjects and on Day 2 for subjects in HAC.
Plasma Phenylacetate/Phenylacetic Acid (PAA) 1) Maximum Plasma Concentration (Cmax); 2) Minimum Plasma Concentration (Cmin); 3) Area Under the Curve from Time Zero to the Time of Last Quantifiable Concentration (AUC[0-Last]); and 4) Time to Cmax (Tmax) on the First Full Day of RAVICTI® Dosing.
as §1, with “PK” for “Pharmacokinetic (PK)”
Plasma Phenylacetylglutamine (PAGN) 1) Maximum Plasma Concentration (Cmax); 2) Minimum Plasma Concentration (Cmin); 3) Area Under the Curve from Time Zero to the Time of Last Quantifiable Concentration (AUC[0-Last]); and 4) Time to Cmax (Tmax) on the First Full Day of RAVICTI® Dosing.

[3] = HPN-100-009 (Example 2): urinary PAGN concentrations on first full day of dosing
Protocol: Assessment of Urinary PAGN Concentrations on the First Full Day of RAVICTI® Dosing.
End point description. Urinary PAGN concentration was measured through urine collection. PK Evaluable Population: all subjects from the safety population with individual concentration-time profiles that allow computation of meaningful PK parameter values. End point timeframe: Hour 0 and between 0.5 and 1 hour, 1.5 and 2.5 hours, 4 and 6 hours, 7.5 and 8.5 hours, and between 12 and 24 hours after the first dose of the day on Day 1 for stable subjects and on Day 2 for subjects in HAC.

UCD patients = experiment: Example 3: rate of hyperammonemic crises (HACs)
Text: Sixteen newborn infants aged 0 to 27 days, and 10 infants and toddlers aged 28 days to 23 months received RAVICTI Oral Liquid administered just prior to breastfeeding or intake of formula or food. The recommended dosing regimen was 3-6 times per day depending on feeding schedule.
The starting dose of RAVICTI was based on UCD status (newly diagnosed, or already stable on sodium phenylbutyrate [NaPBA] and/or sodium benzoate [NaBz]) and whether a hyperammonemic crisis was present. Subsequently, the dose may have been adjusted based on clinical and/or ammonia results, according to an algorithm provided in the protocol. […]
Hyperammonemic crisis (HAC) was defined as having signs and symptoms consistent with hyperammonemia (such as, but not limited to, frequent vomiting, nausea, headache, lethargy, irritability, combativeness, and/or somnolence) associated with high blood ammonia and requiring medical intervention. Rate of HACs prior to enrollment was calculated as sum of (number of HAC)/sum of (subject age in days at the time of enrollment or 365 days, whichever was less) across all subjects in the corresponding group. Rate of HACs per 6 months during the safety extension was calculated as sum of (number of HAC)/sum of (days during first 6 months starting on Day 8 or number days on RAVICTI, whichever is less) across all subjects in the corresponding group.

[4] = original scale, non-inferiority upper margin 1.25

**Q.** Which Mean blood ammonia ([1]; 8-h time point, HPN-100 Day 10) does the source give for `O=C(CCCc1ccccc1)OCC(COC(=O)CCCc1ccccc1)OC(=O)CCCc1ccccc1` [RAVICTI, benzenebutanoic acid, 1′,1″-(1,2,3-propanetriyl) ester] here?
**A.** 23.20 µmol/L

**Q.** What about the Mean blood ammonia ([1]; 12-hour time point, HPN-100 Day 10, NaPBA Day 1) of the same compound?
**A.** 28.24 µmol/L

**Q.** And the “upper 90% CI, blood ammonia 24-hour AUC HPN-100 vs NaPBA” value [1, 4]?
**A.** 1.002

**Q.** And the “upper 95% CI, blood ammonia 24-hour AUC HPN-100 vs NaPBA” value [1, 4]?
**A.** 1.055

**Q.** What about the “median difference between treatments in ammonia AUC (HPN-100 vs NaPBA)” value ([1]; pediatric UCD patients 29 days to <6 years) of the same compound?
**A.** -37.84 µmol·h/L

**Q.** What about the “24-hour AUC for blood ammonia, HPN-100 (Day 10) compared with NaPBA (Day 1)” value ([1]; pediatric UCD patients 29 days to <6 years, non-inferiority upper margin 1.25) of the same compound?
**A.** non-inferior to NaPBA

**Q.** What about the “Mean blood ammonia levels following an overnight fast” value ([1]; pre-dose and 24 hours post dose) of the same compound?
**A.** normal

**Q.** And the “Plasma PAA AUC[0-last]” value [2]?
**A.** 246.126 (±238.547) (μg * hr/mL)

**Q.** And the “Plasma PAA Cmax” value [2]?
**A.** 36.52 (±31.784) (μg/mL)

**Q.** And the “Plasma PAA Cmin” value [2]?
**A.** 4.197 (±6.434) (μg/mL)

**Q.** And the “Plasma PAA Tmax” value [2]?
**A.** 7.422 (±7.351) (hrs)

**Q.** What about the “Plasma PAGN AUC[0-last]” value [2] of the same compound?
**A.** 583.835 (±285.241) (μg * hr/mL)

**Q.** What about the “Plasma PAGN Cmax” value [2] of the same compound?
**A.** 62.45 (±27.281) (μg/mL)

**Q.** And the “Plasma PAGN Cmin” value [2]?
**A.** 20.62 (±14.529) (μg/mL)

**Q.** And the “Plasma PAGN Tmax” value [2]?
**A.** 6.573 (±7.181) (hrs)

**Q.** And the “Plasma PBA AUC[0-last]” value [2]?
**A.** 280.936 (±293.553) (μg * hr/mL)

**Q.** And the “Plasma PBA Cmax” value [2]?
**A.** 42.44 (±36.715) (μg/mL)

**Q.** What about the “Plasma PBA Cmin” value [2] of the same compound?
**A.** 1.697 (±2.254) (μg/mL)

**Q.** And the “Plasma PBA Tmax” value [2]?
**A.** 8.383 (±4.564) (hrs)

**Q.** And the “Urinary PAGN concentration” value ([3]; Age 2 Months to <2 Years, Hour 0.5 to 1)?
**A.** 4140.2 (±4398.8) μg/mL

**Q.** What about the “Urinary PAGN concentration” value ([3]; Age 2 Months to <2 Years, Hour 1.5 to 2.5) of the same compound?
**A.** 3145.2 (±5044.5) μg/mL

**Q.** And the “Urinary PAGN concentration” value ([3]; Age 2 Months to <2 Years, Hour 4 to 6)?
**A.** 5201.6 (±4546.6) μg/mL

**Q.** What about the “Urinary PAGN concentration” value ([3]; Age 2 Months to <2 Years, Hour 7.5 to 8.5) of the same compound?
**A.** 4290 (±3147.2) μg/mL

**Q.** And the “Urinary PAGN concentration” value ([3]; Age 2 Months to <2 Years, Hour 12 to 24)?
**A.** 7561.1 (±6955.7) μg/mL

**Q.** What about the “Urinary PAGN concentration” value ([3]; Age 2 months to <2 years, Hour 0) of the same compound?
**A.** 3478.3 (±1775.4) μg/mL

**Q.** What about the “Rate of HACs (ratio)” value (UCD patients; subjects aged 0 to 27 days, 16 subjects assessed) of the same compound?
**A.** 0.003

**Q.** And the “Rate of HACs (ratio)” value (UCD patients; subjects aged 2 months and up to 2 years, 6 subjects assessed)?
**A.** 0.005
